# Results taken from patent US20040072775A1, “Enhancing the sensitivity of tumor cells to therapies” (priority 1994, published 2004).
# Experiments:
# Assay type in all cases: cell-based, human
# T98 Gp53 cells = assay: clonogenic/growth assay after one hour cisplatin exposure, cells transduced with wild-type p53 gene
# Description: 1). Cells. T98G glioblastoma cells (Mercer et al., “Negative growth regulation in a glioblastoma tumor cell line that conditionally expresses human wild-type p53.” (1990) Proc. Natl. Acad. Sci., USA, 87:6166-6170) were obtained from ATCC and cultured at 37° C. in 10% CO2 in Dulbecco's Modified Eagles Medium supplemented with 10% heat inactivated fetal bovine serum, gentamycin, nonessential amino acids, and sodium pyruvate.
# 2). Plasmids. A plasmid (pLp53RNL) containing the wild-type p53 gene and the neomycin (G418) resistance gene was used. The plasmid pLp53RNL was kindly provided by Dr. Martin Haas (University of California, San Diego), and has been previously described (Cheng et al., “Suppression of acute lymphoblastic leukemia by the human wild-type p53 gene,” (1992) Cancer Res., 53:222-226). This plasmid carries the retroviral sequence Lp53RNL in which wild-type p53 expression is driven from the Moloney murine leukemia virus (MoMLV) LTR. The neomycin resistance gene is driven from the Rous Sarcoma Virus (RSV) promoter.
# 3). Transfections. The plasmid was introduced into T98G cells using cationic liposomes. […]
# 5). […] After 7 days, cells were counted or stained with crystal violet. In the latter case, absorbance at 540 nm is proportional to cell viability. […] Clones were counted 7 to 10 days later by staining in 0.5% methylene blue, 70% ETOH. […]
# [1] = system: empty vector-transduced T98G cells; assay: clonogenic assay after one hour cisplatin exposure, empty vector-transduced cells; conditions: clones counted 7 to 10 days later, read-out: concentration of cisplatin needed to achieve a 50% reduction in colony count
# T98G glioblastoma cells = assay: clonogenic assay after one hour cisplatin exposure, parental cells; conditions: clones counted 7 to 10 days later, read-out: concentration of cisplatin needed to achieve a 50% reduction in colony count
# Description: 1). Cells. T98G glioblastoma cells (Mercer et al., “Negative growth regulation in a glioblastoma tumor cell line that conditionally expresses human wild-type p53.” (1990) Proc. Natl. Acad. Sci., USA, 87:6166-6170) were obtained from ATCC and cultured at 37° C. in 10% CO2 in Dulbecco's Modified Eagles Medium supplemented with 10% heat inactivated fetal bovine serum, gentamycin, nonessential amino acids, and sodium pyruvate. […] 5). Control parental T98G cells and T98 Gp53 cells which had been adapted 2 weeks to culture in the absence of the antibiotics G418 were plated in 24 well plates at about 2×10^4 cells per well. The next day they were exposed for one hour to varying concentrations of cisplatin (a chemotherapeutic agent) from 10 to 40 μM in increments of 10 μM. The cisplatin was removed after one hour and replaced with complete medium (DMEM+10% Fetal Bovine Serum) and cells were allowed to grow for 7 days. After 7 days, cells were counted or stained with crystal violet. In the latter case, absorbance at 540 nm is proportional to cell viability. For clonogenic assays, cells were replated following treatment in 6 well plates at 500-1000 cells per well. Clones were counted 7 to 10 days later by staining in 0.5% methylene blue, 70% ETOH. Colony counts from p53 transfectants and parental T98G glioblastoma cells were compared. […] Subsequent assays confirmed this increased sensitivity. […]
smiles,measurement,setting,value
N.N.[Cl][Pt][Cl] [cisplatin],IC50,"T98 Gp53 cells; cells transduced with wild-type p53 gene, one hour exposure, clones counted 7 to 10 days later, read-out: concentration of cisplatin needed to achieve a 50% reduction in colony count",15 to 20 µM
same,sensitivity of T98 Gp53 cells to the effects of cisplatin compared with parental T98G cells (FIG. 1),"T98 Gp53 cells; cisplatin 10 to 40 μM, one hour",considerably more sensitive
same,IC50,[1],~30 µM
same,IC50,T98G glioblastoma cells,~30 µM
